Several values for one entry are separate records, joined by “and”; a condition that tells them apart may be missing. Equal entries are not always repeated. Activity calls are given as the source filed them.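 The calls were made as follows: active = compounds giving half or more protection of infected cells from virus-caused growth loss, again on retest; inactive = the rest.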
Tested on: CEM cells HIV-1 protection, formazan growth assay
Assay: NCI AIDS Antiviral Assay
Conditions: for IC50: measured here: growth of uninfected CEM cells
Summary of the method: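 Category rules: moderately active means at least 50% protection on retest, and confirmed active means 100% protection reproducibly. The underlying data came from a formazan growth assay in HIV-1-infected CEM cells.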

Row | SMILES | EC50 | IC50 | outcome
1 | N#Cc1ccc(Oc2ccccc2)cc1C#N | > 45.7 µM | > 45.7 µM | –
2 | NC(C/C=C/P(=O)(O)O)C(=O)O (stereo not given) | > 200 µM | 155 µM | –
3 | Nc1ncn(C2OC(COP(=O)(O)O)C(O)C2O)c(=O)n1 (stereo not given) | > 200 µM | 8.51 µM | –
4 | CC1(C)Oc2ccc3c(=O)cc(-c4ccccc4)oc3c2C1C(=O)O (stereo not given) | > 200 µM | > 200 µM | –
5 | CC(C)(C)[Si](C)(C)O[C@@H](C(=O)OC1C=CCCC1)[C@@H](NC(=O)c1ccccc1)c1ccccc1 (stereo not given in full) | > 200 µM | 12.3 µM | –
6 | Nc1ncnc(N)c1N=O | > 200 µM | 5.89 µM and 1.62 µM | –
7 | O=C(O)c1ccccc1P(=O)(O)c1ccccc1 | > 200 µM | > 200 µM | –
8 | Cc1ccc(C(=O)/C=C/c2ccc(Cl)c(Cl)c2)cc1 | > 17.8 µM | > 17.8 µM | –
9 | CCP(=O)(CC)C(Cl)(Cl)C(O)C(Cl)(Cl)Cl (stereo not given) | > 200 µM | > 200 µM | –
10 | O=c1[nH]nc2ccccc2c1Cc1ccccc1 | > 151 µM | > 151 µM | –
11 | O=c1ccc2nc3cc(Cl)ccc3sc-2c1 | > 8.13 µM | 2.19 µM | –
12 | CCN(CC)CC(=O)Nc1c(C)cc(C(=O)NN)cc1C | > 200 µM | > 200 µM | –
13 | c1cc2nnc1SCCCSc1ccc(nn1)SCCCS2 | > 126 µM | 115 µM | –
14 | NC(=S)N/N=C\CC(O)(C(F)(F)F)C(F)(F)F | > 200 µM | > 200 µM | –
15 | O=S(=O)(O)c1cc(N=Nc2ccc(S(=O)(=O)c3ccc(N=Nc4cc(S(=O)(=O)O)c5cccnc5c4O)cc3)cc2)c(O)c2ncccc12 | 6.03 µM | 39.8 µM | –
16 | COc1ccc2c(c1)C(=O)C13CC(C(=O)O)C(OC(C)=O)(CCC21)C3 (stereo not given) | > 89.1 µM | > 89.1 µM | –
17 | Cc1ccc(S(=O)(=O)N/N=c2/sc3ccccc3n2C)cc1 | > 200 µM | > 200 µM | –
18 | COc1ccccc1CC1(O)OC(=O)c2ccccc21 (stereo not given) | > 200 µM | > 200 µM | –
19 | COc1ccc(/C(CC2OC(=O)c3ccccc32)=N\NC(=O)C[N+](C)(C)C)cc1 (stereo not given) | > 77.6 µM | 24 µM | –
20 | CCO/C=C(/C#N)C(=O)OC | – | – | inactive
21 | COC1CC(C)C(OC)c2cc(O)cc(c2O)NC(=O)/C(C)=C/C=C\C(C)C(OC(N)=O)/C(C)=C\C(C)C1OC (stereo not given) | > 170 µM | 0.676 µM | –
22 | CCCCOC(=S)SSC(=S)NCCNC(=S)SSC(=S)OCCCC | > 200 µM | 55 µM | –

Row | SMILES | EC50 | IC50 | outcome
23 | CCCCCCOP(=O)(OCCCCCC)C(NC(=O)OCC)(C(F)(F)F)C(F)(F)F | > 200 µM | 21.9 µM | –
24 | C=CCn1c(C23CC4CC(CC(C4)C2)C3)n[nH]c1=S | > 1000 µM | 30.9 µM | –
25 | O=[N+]([O-])c1ccccc1Nc1ccccc1[N+](=O)[O-] | > 52.5 µM | > 52.5 µM | –
26 | O=C1c2ccccc2CCC1(Br)Cc1ccccc1 (stereo not given) | > 200 µM | 20.4 µM | –
27 | COC(=O)CCC12CCC(=O)C1[C@@H](C(=O)OC)C[C@H]2C(=O)OC (stereo not given in full) | – | – | inactive
28 | C(=C\c1ccnc2ccccc12)/c1ccnc2ccccc12 | > 13.2 µM | > 13.2 µM | –
29 | NC(=O)C(=CNC(=S)Nc1cccc(C(F)(F)F)c1)C(N)=O | > 200 µM | > 200 µM | –
30 | CCCCCCCCCCCCNP(=S)(NCCCCCCCCCCCC)NCCCCCCCCCCCC | > 100 µM | > 100 µM | –
31 | Cn1cc(NC(=O)[C@H]2CCC(N)=N2)cc1C(=O)NCCC(=N)N | – | – | inactive
32 | CCCCCCCCCCCCCCCC=C(c1cc(Br)c(O)c(C(=O)O)c1)c1cc(Br)c(O)c(C(=O)O)c1 | > 112 µM | 53.7 µM | –
33 | CC(=O)NC1C(O[C@H]2CC[C@@]3(C)C(CC[C@]4(C)C3CC=C3C5CC(C)(C)CC[C@]5(C(=O)O)CCC34C)C2(C)C)OC(CO)C(O)C1O (stereo not given in full) | > 200 µM | 9.12 µM | –
34 | CC(=O)NNc1nc(C)c(C(=O)NNC(=O)C(=O)Nc2cccc(C(C)=O)c2)s1 | > 44.7 µM | > 44.7 µM | –
35 | CC1CN(S(=O)(=O)c2cccc3cnccc23)CCN1 (stereo not given) | > 126 µM | 38 µM | –
36 | COC(=O)C(c1[nH]nc2ccccc12)C(C(=O)OC)c1[nH]nc2ccccc12 (stereo not given) | – | – | inactive
37 | CCCCNC1CCCCC[C@H]1O (stereo not given in full) | > 1120 µM | > 1120 µM | –
38 | O=C(/C=C/c1ccccc1)Nc1ccccc1SCCCCl | > 200 µM | 9.55 µM | –
39 | CCN(CC)CC(=O)Nc1cc(NC(=O)CN(CC)CC)c(C)c(NC(=O)CN(CC)CC)c1 | > 200 µM | 56.2 µM | –
40 | S=C1NC2(CCCCCC2)NN1c1ccccc1 | > 100 µM | 30.9 µM | –
41 | C=CCn1c(-c2ccc(-c3cs/c(=N\N=O)n3CC=C)cc2)cs/c1=N\N=O | > 100 µM | > 100 µM | –
42 | O=C1c2ccccc2C(=O)N1C/C=N/NS(=O)(=O)c1ccc2ccccc2c1 | > 240 µM | > 240 µM | –
43 | Cc1ccccc1C(O)(c1nccn1C)c1nccn1C | > 200 µM | > 200 µM | –
44 | Cc1c(NC(=O)CCCl)c(=O)oc2c(C)c3occc(=O)c3cc12 | > 145 µM | 1.48 µM | –

Row | SMILES | EC50 | IC50 | outcome
45 | CC1=NN(c2ccccc2)C(=O)/C1=C1\SS/C(=C2\C(=O)N(c3ccccc3)N=C2C)S1 | > 100 µM | > 100 µM | –
46 | CSC1NC(c2ccc(Cl)cc2)=C(C#N)C(=O)N1C1OCC(OC(C)=O)C(OC(C)=O)C1OC(C)=O (stereo not given) | > 200 µM | 30.9 µM | –
47 | CNC1C(OC2C(OC3C(O)C(O)C(N=C(N)N)C(O)C3N=C(N)N)OC(C)C2(O)CO)OC(CO)C(O)C1O (stereo not given) | – | – | inactive
48 | COc1ccc(C(OCC2OC(n3ccc(NC(=O)c4ccccc4)nc3=O)CC2OP2(=S)SCCS2)(c2ccccc2)c2ccc(OC)cc2)cc1 (stereo not given) | > 100 µM | 44.7 µM | –
49 | O=c1cc(Nc2cccc(O)c2)[nH]c(=O)[nH]1 | – | – | inactive
50 | CCc1cccc(C(C)(C)C)c1NC(=S)N/C=C(\c1ccccc1)S(=O)Cc1ccccc1 (stereo not given) | 182 µM | > 200 µM | –
51 | COC(=O)C1=C(C)NC2=C(C(=O)c3ccccc32)C1c1cn(-c2ccccc2)nc1-c1ccccc1 (stereo not given) | > 200 µM | 8.71 µM | –
52 | O=C(O)c1ccccc1C(=O)c1ccc(O)cc1 | > 200 µM | > 200 µM | –
53 | O=C(CC1(O)C(=O)Nc2c(Cl)ccc(Cl)c21)c1ccc(Cl)cc1Cl (stereo not given) | > 12.9 µM | > 12.9 µM | –
54 | COC(=O)C1=C(C)NC2=C(C(=O)c3ccccc32)C1c1cn[nH]c1-c1ccccc1 (stereo not given) | > 20 µM | > 20 µM | –
55 | O=C(O)c1cc(O)cc(O)c1N=Nc1ccc(/C=C/c2ccc(N=Nc3c(O)cc(O)cc3C(=O)O)cc2)cc1 | 70.8 µM and 25.1 µM | 132 µM and > 100 µM | –
56 | O/N=C/[C@H]1COC2(CCCCC2)O1 | > 200 µM | > 200 µM | –
57 | CCC1(OC(C)=O)C(=O)OCc2c1cc1n(c2=O)Cc2cc3ccccc3nc2-1 (stereo not given) | > 10 µM | 0.129 µM | –
58 | CCCCCCNC(=O)Sc1ccccc1C(=O)N[C@H](C)C(N)=O | 0.141 µM | 107 µM | –
59 | CCN(CC)CCN(C)CCc1ccc(Br)cc1 | > 126 µM | 112 µM | –
60 | O=C(Nc1cccc(C(F)(F)F)c1)c1cc(Br)cc(Br)c1O | > 200 µM | 1.51 µM | –
61 | O=C1CCCC/C1=C\c1ccc(Br)cc1 | > 200 µM | 10.7 µM | –
62 | O=C(OCc1ccccc1)[C@H]1O[C@@H]1C(=O)OCc1ccccc1 | > 200 µM | 25.7 µM | –
63 | C[C@]12CCC3c4ccc(OS(=O)(=O)O)cc4CC[C@H]3C1CC[C@@H]2O (stereo not given in full) | – | – | inactive
64 | CC(=O)C1(N=Nc2ccc(S(=O)(=O)Nc3nccc(C)n3)cc2)CCOC1=O (stereo not given) | > 200 µM | > 200 µM | –
65 | Nc1nc(=O)n(C2CC(O)C(CO)O2)c2nc(-c3ccc(-c4ccccc4)cc3)cnc12 (stereo not given) | > 200 µM | > 200 µM | –
66 | COC(=O)C(COC(C)=O)NC(=O)/C=C/c1ccc(O)c(OC(C)=O)c1 (stereo not given) | > 200 µM | 10 µM | –

Row | SMILES | EC50 | IC50 | outcome
67 | Cc1ccc(S(=O)(=O)Nc2ccccc2C(C)(C)C)cc1 | – | – | inactive
68 | O=C1CC(c2cccc(Br)c2)n2cccc21 (stereo not given) | – | – | inactive
69 | Cc1cc(=O)oc2c(C)c(O)ccc12 | > 138 µM | 97.7 µM | –
70 | CC(=O)OI1NC(=O)c2ccccc21 | 36.3 µM | 126 µM | –
71 | CC(C)(C)NC(=O)CCC1C(C(=O)NC(C)(C)C)C2(Cl)C(Cl)=C(Cl)C1(Cl)C2(Cl)Cl (stereo not given) | > 200 µM | > 200 µM | –
72 | O=C(O)c1cc[c]([Sb](=[O])([OH])[OH])cc1 | 29.5 µM | > 200 µM | –
73 | N#Cc1nc(/C=C/c2ccccc2)oc1N | > 501 µM | 112 µM | –
74 | CC(=O)Nc1ccc(S(=O)(=O)/N=C(/C2CCCC2)N2CCCC2)cc1 | > 200 µM | > 200 µM | –
75 | O=C1CC[C@@]23CC(=O)O[C@@H]2CCCC3C1 (stereo not given in full) | – | – | inactive
76 | CCOC(=O)C(C(=O)OCC)C(=S)NC1OC(COC(C)=O)C(OC(C)=O)C(OC(C)=O)C1OC(C)=O (stereo not given) | > 200 µM | > 200 µM | –
77 | CN1Cc2ccccc2S(=O)(=O)n2cccc2C1=O | > 200 µM | > 200 µM | –
78 | CCOC(=O)/C(C#N)=C\c1ccc([N+](=O)[O-])o1 | > 1050 µM | > 1050 µM | –
79 | CCOC(=O)C(/C=N/C(N)=S)=C(/O)c1ccccc1 | > 200 µM | > 200 µM | –
80 | CN(Cc1cnc2nc(N)nc(N)c2n1)c1ccc(C(=O)NC(CCC(=O)NCCC(P(=O)(O)O)P(=O)(O)O)C(=O)O)cc1 (stereo not given) | > 200 µM | 3.63 µM | –
81 | O=S(=O)(O)SCCCNCCCCCCCCNCCCSS(=O)(=O)O | > 200 µM | 10 µM | –
82 | [N-]=[N+]=CC(=O)OC(CCl)CCl | > 200 µM | > 200 µM | –
83 | Clc1nc(Cl)nc(-c2cccn2-c2ccccc2)n1 | > 200 µM | 129 µM | –
84 | CCCCCN(CCCCC)C(=O)COc1cc2c(O)c3c(O)c(C)c4c(c13)C(=O)C(C)(O/C=C/C(OC)C(C)C(OC(C)=O)C(C)C(O)C(C)C(O)C(C)/C=C/C=C(\C)C(=O)N2)O4 (stereo not given) | > 200 µM | 7.76 µM | –
85 | NC(=O)c1c[se]c(C2OC(CO)C(O)C2O)n1 (stereo not given) | – | – | inactive
86 | COc1cc(OC)c2nc3ccccc3c(NCCCN(C)C)c2c1[N+](=O)[O-] | > 200 µM | 20 µM | –
87 | N#Cc1c(N2CCC(O)C2)c2ccccc2n2c1nc1ccccc12 (stereo not given) | > 50.1 µM | > 50.1 µM | –
88 | COc1ccc(CN(Cc2ccccc2)c2ncccn2)cc1 | > 17 µM | > 17 µM | –

Source: PubChem BioAssay AID179 (DTP/NCI, 2004)
